This passage reports EC50 results from patent publication US11149036B2, “3-(1H-pyrazol-4-yl)pyridine allosteric modulators of the M4 muscarinic acetylcholine receptor” (Merck Sharp & Dohme Corp., priority 2017, dated 2021).

This assay concerns the target T1, human M4 muscarinic acetylcholine receptor (Homo sapiens, UniProt P08173).
T1 construct: expressed in transfected cells; host or cells: CHO-K1
T1 sequence (P08173 1-479): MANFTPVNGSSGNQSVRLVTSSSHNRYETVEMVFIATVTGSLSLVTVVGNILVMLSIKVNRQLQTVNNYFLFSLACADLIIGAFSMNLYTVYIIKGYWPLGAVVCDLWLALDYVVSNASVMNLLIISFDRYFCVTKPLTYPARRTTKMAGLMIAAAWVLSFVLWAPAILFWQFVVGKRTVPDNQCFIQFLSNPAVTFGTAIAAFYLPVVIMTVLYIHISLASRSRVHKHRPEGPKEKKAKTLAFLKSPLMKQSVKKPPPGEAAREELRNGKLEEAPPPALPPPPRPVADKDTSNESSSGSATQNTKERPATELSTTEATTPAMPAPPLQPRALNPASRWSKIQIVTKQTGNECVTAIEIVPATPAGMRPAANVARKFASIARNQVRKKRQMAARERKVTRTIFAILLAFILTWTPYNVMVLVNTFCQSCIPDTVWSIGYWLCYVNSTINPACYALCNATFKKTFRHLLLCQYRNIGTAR
Put plainly: human FLIPR-based M4 PAM assay (CHO-K1 cells with human M4 receptor and Gaqi5, calcium dye fluorescence). Type of assay: cell-based. The conditions noted are these: inflection point (IP) of dose response curve, acetylcholine added at 20% of maximum response, read-out: M4 FLIPPR Hu IP. How it is done: (§1) In a typical experiment the M4 muscarinic acetylcholine receptor modulating activity of the compounds of the present invention was determined in accordance with the following experimental method. CHO-K1 cells stably transfected with human M4 receptor and chimeric G-protein Gaqi5 (Coward P, et al., Analytical Biochemistry, 270:242-248 (1999)) are thawed from liquid N2 storage, resuspended in growth medium, plated in black, clear bottom 384 well plates, and incubated 16-20 hours at 37° C., 5% CO2. On the day of assay, growth medium is removed, the cells are washed 2 times with wash buffer, and cells are incubated in dye loading buffer at 37° C., 5% CO2 for ˜1 hour. Following dye loading the cell plates are placed in a FLIPR Tetra instrument and while monitoring dye fluorescence (excitation 470-495 […]), 10 uL of test substance at increasing concentrations is added, and fluorescence values are recorded for 4 min. Next, 10 uL of acetylcholine is added (final concentration calculated so as to achieve 20% of the maximum acetycholine response), and the fluorescence reading is continued for 3.5 min. In some cases, a third addition of acetylcholine (final concentration calculated to achieve 70% of the maximal acetylcholine response) is performed. The resulting dose response curves are fit to a 4 parameter logistic equation and the final result is determined as the inflection point (IP) of the curve
as §1, with “CHO-K1” for “In a typical experiment the M4 muscarinic acetylcholine receptor modulating activity of the compounds of the present invention was determined in accordance with the following experimental method. CHO-K1”, “Gaqi5” for “Gaqi5 (Coward P, et al., Analytical Biochemistry, 270:242-248 (1999))”, “performed.” for “performed. The resulting dose response curves are fit to a 4 parameter logistic equation and the final result is determined as the inflection point (IP) of the curve”
Take `N#Cc1ccc(-c2cnn(CC3(F)CCCC3)c2)c(-c2ccn3ncnc3c2)n1` [Example 43, 6-([1,2,4]triazolo[1,5-a]pyridin-7-yl)-5-(1-((1-fluorocyclopentyl)methyl)-1H-pyrazol-4-yl)picolinonitrile]: the EC50 amounted to 29 nM.

Turning to `Cc1nnc2cc(-c3nc(C#N)ccc3-c3cnn(CC4(F)CCCC4)c3)ccn12` [Example 44, 5-(1-((1-fluorocyclopentyl)methyl)-1H-pyrazol-4-yl)-6-(3-methyl-[1,2,4]triazolo [4,3-a]pyridin-7-yl)picolinonitrile], the EC50 amounted to 18 nM.

For `CN1C(=O)c2cc(-c3nc(C#N)ccc3-c3cnn(CC4(F)CCCC4)c3)ccc2C1(C)C` [Example 45, 5-(1-((1-fluorocyclopentyl)methyl)-1H-pyrazol-4-yl)-6-(1,1,2-trimethyl-3-oxoisoindolin-5-yl)picolinonitrile], the EC50 is 64 nM.

Regarding `CC1(C)NC(=O)c2cc(-c3nc(C#N)ccc3-c3cnn(CC4(F)CCCC4)c3)ccc21` [Example 46, 6-(1,1-dimethyl-3-oxoisoindolin-5-yl)-5-(1-((1-fluorocyclopentyl)methyl)-1H-pyrazol-4-yl)picolinonitrile49], the EC50 was 102 nM.

As for `N#Cc1ccc(-c2cnn(CC3(F)CCCC3)c2)c(-c2cnc3c(c2)C(=O)N(CCF)C3)n1` [Example 47, 5-(1-((1-fluorocyclopentyl)methyl)-1H-pyrazol-4-yl)-6-(6-(2-fluoroethyl)-5-oxo-6,7-dihydro-5H-pyrrolo[3,4-b]pyridin-3-yl)picolinonitrile], the EC50 was 56 nM.

Regarding `Cn1cc2ccc(-c3nc(C#N)ccc3-c3cnn(CC4(F)CCCC4)c3)cc2n1` [Example 48, 5-(1-((1-fluorocyclopentyl)methyl)-1H-pyrazol-4-yl)-6-(2-methyl-2H-indazol-6-yl)picolinonitrile], the EC50 came out at 41 nM.

For `Cc1nc2cc(-c3nc(C#N)ccc3-c3cnn(CC4(F)CCCC4)c3)ccc2o1` [Example 49, 5-(1-((1-fluorocyclopentyl)methyl)-1H-pyrazol-4-yl)-6-(2-methylbenzo[d]oxazol-5-yl)picolinonitrile], the EC50 was determined as 107 nM.

In the case of `N#Cc1ccc(-c2cnn(CC3(F)CCCC3)c2)c(-c2ccn3ccnc3c2)n1` [Example 50, 5-(1-((1-fluorocyclopentyl)methyl)-1H-pyrazol-4-yl)-6-(imidazo[1,2-a]pyridin-7-yl)picolinonitrile], the EC50 was determined as 27 nM.

In the case of `N#Cc1ccc(-c2cnn(CC3(F)CCCC3)c2)c(-c2ccn3cc(C(F)(F)F)nc3c2)n1` [Example 51, 5-(1-((1-fluorocyclopentyl)methyl)-1H-pyrazol-4-yl)-6-(2-(trifluoromethyl)imidazo [1,2-a]pyridin-7-yl)picolinonitrile], the EC50 turned out to be 22 nM.

`N#Cc1ccc(-c2cnn(CC3(F)CCCC3)c2)c(-c2ccn3cc(Cl)nc3c2)n1` [Example 52, 6-(2-chloroimidazol[1,2-a]pyridin-7-yl)-5-(1-((1-fluorocyclopentyl)methyl)-1H-pyrazol-4-yl)picolinonitrile]: the EC50 stood at 10 nM.

For the molecule `N#Cc1ccc(-c2cnn(CC3(F)CCCC3)c2)c(-c2cnc3oc(C4CC4)nc3c2)n1` [Example 53, 6-(2-cyclopropyloxazolo[5,4-b]pyridin-6-yl)-5-(1-((1-fluorocyclopentyl)methyl)-1H-pyrazol-4-yl)picolinonitrile], the EC50 was 76 nM.

Consider `N#Cc1ccc(-c2cnn(CC3(F)CCCC3)c2)c(-c2ccn3cc(C4CC4)nc3c2)n1` [Example 54, 6-(2-cyclopropylimidazo[1,2-a]pyridin-7-yl)-5-(1-((1-fluorocyclopentyl)methyl)-1H-pyrazol-4-yl)picolinonitrile], for which the EC50 was determined as 36 nM.

With `N#Cc1ccc(-c2cnn(CC3(F)CCCC3)c2)c(-c2cnc3c(c2)C(=O)N(CC2CC2)C3)n1` [Example 55, 6-(6-(cyclopropylmethyl)-5-oxo-6,7-dihydro-5H-pyrrolo[3,4-b]pyridin-3-yl)-5-(1-((1-fluorocyclopentyl)methyl)-1H-pyrazol-4-yl)picolinonitrile], the EC50 worked out at 35 nM.

Consider `Cn1nnc2cc(-c3nc(C#N)ccc3-c3cnn(CC4(F)CCCC4)c3)ccc21` [Example 56, 5-(1-((1-fluorocyclopentyl)methyl)-1H-pyrazol-4-yl)-6-(1-methyl-1H-benzo[1,2,3]triazol-5-yl)picolinonitrile], for which the EC50 was 41 nM.

In the case of `CCc1cn2ccc(-c3nc(C#N)ccc3-c3cnn(CC4(F)CCCC4)c3)cc2n1` [Example 57, 6-(2-ethylimidazo[1,2-a]pyridin-7-yl)-5-(1-((1-fluorocyclopentyl)methyl)-1H-pyrazol-4-yl)picolinonitrile], the EC50 amounted to 16 nM.

In the case of `N#Cc1ccc(-c2cnn(CC3(F)CCCC3)c2)c(-c2ccn3cc(C(F)F)nc3c2)n1` [Example 58, 6-(2-(difluoromethyl)imidazo [1,2-a]pyridin-7-yl)-5-(1-((1-fluorocyclopentyl)methyl)-1H-pyrazol-4-yl)picolinonitrile], the EC50 is 15 nM.

For the molecule `Cc1nc2cc(-c3nc(C#N)ccc3-c3cnn(CC4(F)CCCC4)c3)ccc2n1C` [Example 59, 6-(1,2-dimethyl-1H-benzo[d]imidazol-5-yl)-5-(1-((1-fluorocyclopentyl)methyl)-1H-pyrazol-4-yl)picolinonitrile], the EC50 was 43 nM.

`Cc1nc2ccc(-c3nc(C#N)ccc3-c3cnn(CC4(F)CCCC4)c3)cn2n1` [Example 60, 5-(1-((1-fluorocyclopentyl)methyl)-1H-pyrazol-4-yl)-6-(2-methyl-[1,2,4]triazolo[1,5-a]pyridin-6-yl)picolinonitrile]: the EC50 came out at 110 nM.

For `Cc1nc2cc(-c3nc(C#N)ccc3-c3cnn(CC4(F)CCCC4)c3)ccn2n1` [Example 61, 5-(1-((1-fluorocyclopentyl)methyl)-1H-pyrazol-4-yl)-6-(2-methyl-[1,2,4]triazolo[1,5-a]pyridin-7-yl)picolinonitrile], the EC50 was determined as 37 nM.

Take `N#Cc1ccc(-c2cnn(CC3(F)CCCC3)c2)c(-c2ccc3conc3c2)n1` [Example 62, 6-(benzo[c]isoxazol-6-yl)-5-(1-((1-fluorocyclopentyl)methyl)-1H-pyrazol-4-yl)picolinonitrile]: the EC50 worked out at 62 nM.

With `Cc1nc2cc(-c3nc(C#N)ccc3-c3cnn(CC4(F)CCCC4)c3)cnc2n1C` [Example 63, 6-(2,3-dimethyl-3H-imidazo[4,5-b]pyridin-6-yl)-5-(1-((1-fluorocyclopentyl)methyl)-1H-pyrazol-4-yl)picolinonitrile], the EC50 turned out to be 63 nM.

As for `COc1cc2ccc(-c3nc(C#N)ccc3-c3cnn(CC4(F)CCCC4)c3)cn2n1` [Example 64, 5-(1-((1-fluorocyclopentyl)methyl)-1H-pyrazol-4-yl)-6-(2-methoxypyrazolo[1,5-a]pyridin-6-yl)picolinonitrile], the EC50 is 22 nM.

Consider `CCc1nc2cc(-c3nc(C#N)ccc3-c3cnn(CC4(F)CCCC4)c3)ccn2n1` [Example 65, 6-(2-ethyl-[1,2,4]triazolo[1,5-a]pyridin-7-yl)-5-(1-((1-fluorocyclopentyl)methyl)-1H-pyrazol-4-yl)picolinonitrile], for which the EC50 came out at 28 nM.

`N#Cc1ccc(-c2cnn(CC3(F)CCCC3)c2)c(-c2ccn3nc(CO)nc3c2)n1` [Example 66, 5-(1-((1-fluorocyclopentyl)methyl)-1H-pyrazol-4-yl)-6-(2-(hydroxymethyl)-[1,2,4]triazolo[1,5-a]pyridin-7-yl)picolinonitrile]: the EC50 amounted to 89 nM.

Take `COc1cc2ccc(-c3nc(C#N)ccc3-c3cnn(C[C@H]4CC[C@H](F)C4)c3)cc2nn1` [Example 67, 5-(1-(((1S,3S)-3-fluorocyclopentyl)methyl)-1H-pyrazol-4-yl)-6-(3-methoxycinnolin-7-yl)picolinonitrile]: the EC50 was 64 nM.
